# Data: US5686426A, “Dicarboxymethylated glycolipid derivatives as cell adhesion inhibitors” (Bristol-Myers Squibb Company, priority 1994, dated 1997)
# Assays:
# [1] = system: reverse passive Arthus reaction in rats; test: Reverse Passive Arthus Reaction in Rats (RPA); assay type: in vivo, Male Sprague Dawley rats; settings: rat, single IV dose 3 mg, 4 hours
# Excerpt: The reverse passive Arthus reaction in rats is a modification of the method by Mulligan et al., as described in J. Clin. Invest., (1991) 88: 1396-1406. This is an experimental model in which the interaction of antigen-antibody complexes and complement leads to a severe vasculitis that is associated with edema, induration, erythema and hemorrhage. The interaction between the antigen-antibody complexes and complement leads to a localized influx of neutrophils. These neutrophils release a variety of mediators that are associated with tissue damage and vascular permeability. The localized inflammatory reaction is measured using different techniques i.e., vascular permeability and neutrophil influx which is evaluated both biochemically and microscopically.
# Male Sprague Dawley specific pathogen-free rats with jugular vein cannulae (280-320 g, Hill Top Labs, Pa.) are used in these studies. Animals are acclimated for at least 1 day and individually housed in stainless steel cages. The dorsal region of the rats is closely clipped 2 days prior to the experiments and divided into 4 sites on each side of the midline. Prior to all injections the rats are sedated with 0.4 ml per 300 gm rat of ketamine/rompun [1000 mg (10 ml) of ketamine HCL is mixed with 40 mg (2.0 ml) Rompun] administered IP and or inhalation anesthesia with metafane (methoxyflurane).
# Bovin Serum Albumin (BSA) and rabbit polyclonal IgG rich in anti-BSA are purchased from Sigma Chemical Co. (St. Louis, Mo.). Radiolabelled ^125 I-BSA (spAct 1-5 μCi/μg) is purchased from Dupont NEN (Boston, Mass.).
# Each rat is administered intradermal (ID) injection of (0.4 mg, 0.6 mg and 0.8 mg) anti-BSA in a volume of 100 μl per injection in normal saline. The ID injections are randomized near the mid dorsal region on both sides of the back bone. Immediately after the ID injections of the anti-BSA, the rats are administered intravenous (IV) injections of BSA (10 mg in 1.0 ml) in normal saline containing ^125 I labeled BSA (1 μCi/ml BSA or 5.0 μCi/kg body wt) for quantification of dermal vascular injury. Anti-inflammatory agents such as inhibitors of adhesion molecules of the present invention are administered IV at a single dose of 3 mg immediately after BSA. Four (4) hours after the IV injection of BSA, the rats are anesthetized with metafane and 2 to 3 ml of blood is withdrawn via the cannula into an anticoagulant containing (EDTA or Heparin) tube and plasma separated and saved for neutrophil and albumin quantitation. The rats are killed and the skin surrounding the injection site (15 mm diameter) is punched out and weighed. The skin samples and a fixed volume of plasma (0.1 to 1.0 ml) is analyzed in a gamma-counter for ^125 I content. Skin samples from the contralateral side are processed and analyzed for myeloperoxidase activity (MPO) as a measure of neutrophil accumulation. As needed, samples are also processed for histological evaluation of the reacted sites.
# Vascular Permeability (VP)
# The calculation of the plasma protein exudation into skin is made by determining the radioactivity in the tissue and relating this to the level of radioactive albumin in the blood at the time of sacrifice. […] [formula]
# Percent inhibition of the test compound at 3 mg was determined as follows: [formula] Myeloperoxidase (MPO)
# MPO is located in the azurophil granules of polymorphonuclear leukocytes (PMN). Because of its abundance in these cells (5% dry weight), this enzyme is used as a marker for tissue neutrophil content. For tissue MPO content, the method of Bradley, et al., was used as described in J. Invest. Dermatol. (1982) 78: 206-209. Biopsies from each treatment group were placed in plastic tubes (15×100 mm) containing 10 ml of 0.5% hexadecyltrimethylammonium bromide (HTAB)in 0.05M potassium phosphate buffer pH 6.0. The tissue was then homogenized with a Brinkmann Polytron homogenizer (10s). […]
# [2] = system: HL-60 cells / activated platelets (P-selectin); test: HL-60 Platelet Cell Adhesion Assay; assay type: cell-based; settings: HL-60 cell adhesion to thrombin-activated human platelets
# Description: HL-60 cells, obtained from American Type Culture Collection, were cultured in RPMI 1640 medium (GIBCO) supplemented with 20% fetal calf serum (Sigma) and 50 μg/ml gentamicin (GIBCO). Cells in log phase growth were harvested, washed and resuspended in Tyrodes buffer containing 5 mM HEPES and 0.2% bovine serum albumin and were fixed with 1% buffered formalin.
# Blood from normal human donors was anticoagulated with citrate, layered over 1-Step Platelets (Accurate Chemical Co.), and centrifuged at 350 g for 20 minutes at room temperature. The platelet band was collected, diluted in 2 volumes of Tyrode's Buffer with 5 mM HEPES, 10 mM EDTA, and 0.2% BSA (pH 7.4) (THEB) and centrifuged at 600 g for 10 minutes. The platelet pellet was resuspended in THEB and incubated at room temperature for 1 hour. Calcein-acetoxy methylester (Calcein-Am, Molecular Probes) was added to the platelets at a final concentration of 10 μM and incubated for 10 minutes at 37° C. to label the platelets. Without washing, the platelets were counted on a Coulter counter model ZM, and the concentration was adjusted to 1×10^7 /ml. The platelets were activated with 2 U/ml of human thrombin for 10 minutes in Tyrode's containing 2 mM CaCl2, 5 mM HEPES, and 0.2% BSA (pH 7.4) (THB) at 37° and immediately fixed with 1% buffered formalin for 1 to 2 hours at room temperature. A small aliquot of labeled platelets was removed before activation and designated as non-activated.
# Both platelets and HL-60 were washed in a ≥5 fold excess volume of Hanks Balanced Salt Solution (HBSS), resuspended in THB and counted. Cell concentrations were adjusted to 2×10^7 /ml for platelets and 4×10^6 /ml for HL-60, this ratio determined to be optimum for platelet: HL-60 cell adhesion. Compounds were incubated with 50 μl of platelets for 30 minutes at room temperature before addition of 50 μl of HL-60. This ratio of 5:1 platelets to HL-60 was incubated for 30 minutes at room temperature before addition of 0.2 ml of THB to increase the volume so the samples could be analyzed on a FACScan cytometer (Becton Dickinson). Non-activated platelets, and activated platelets with 10 mM EDTA were included as controls. Data were collected within a region set for the forward scatter channel corresponding to HL-60 size events.
# The percent HL-60 cells which contained bound platelets was determined for each test condition. The inhibition of binding was determined by comparison to standards which were treated with vehicle alone (representing 0% inhibition) and standards whose specific binding had been blocked by the use of EDTA (representing 100% inhibition), by the following formula: [formula] where x=HL-60 cells containing bound platelets in the presence of the compound;
# b=HL-60 cells containing bound platelets in the presence of EDTA;
# a=HL-60 cells containing bound platelets in presence of compound vehicle;
# z=% inhibition of platelet: HL-60 cell adhesion
# P-selectin [3] = target: T1, P-selectin (Homo sapiens, UniProt P16109); settings: literature; cited from earlier work
# T1 sequence (P16109 42-830): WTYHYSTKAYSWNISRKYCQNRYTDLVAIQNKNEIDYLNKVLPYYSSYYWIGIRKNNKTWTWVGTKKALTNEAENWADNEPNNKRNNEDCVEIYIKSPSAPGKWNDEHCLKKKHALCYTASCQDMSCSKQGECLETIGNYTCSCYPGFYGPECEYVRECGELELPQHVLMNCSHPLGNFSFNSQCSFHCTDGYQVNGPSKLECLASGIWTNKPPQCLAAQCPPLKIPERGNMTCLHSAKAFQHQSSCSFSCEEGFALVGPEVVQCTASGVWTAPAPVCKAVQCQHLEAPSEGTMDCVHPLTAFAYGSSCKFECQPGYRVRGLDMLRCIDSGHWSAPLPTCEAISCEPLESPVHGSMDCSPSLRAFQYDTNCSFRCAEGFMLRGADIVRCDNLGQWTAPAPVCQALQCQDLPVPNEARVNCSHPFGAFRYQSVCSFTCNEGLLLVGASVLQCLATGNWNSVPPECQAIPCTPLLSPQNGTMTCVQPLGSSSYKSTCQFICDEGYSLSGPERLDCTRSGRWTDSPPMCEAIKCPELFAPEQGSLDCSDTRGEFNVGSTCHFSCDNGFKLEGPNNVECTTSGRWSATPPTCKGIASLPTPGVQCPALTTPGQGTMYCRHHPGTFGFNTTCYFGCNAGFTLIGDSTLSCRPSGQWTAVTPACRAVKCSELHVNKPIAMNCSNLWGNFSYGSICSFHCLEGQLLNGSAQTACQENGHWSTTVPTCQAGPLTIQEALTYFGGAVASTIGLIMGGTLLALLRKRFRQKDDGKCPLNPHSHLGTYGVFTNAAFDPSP
# P-selectin [4] = target: T1, P-selectin; settings: anionic polymers; literature; cited from earlier work
molecule,measurement,setting,value
"CCCCCCCCCCCCC/C=C/[C@@H](OC(=O)c1ccccc1)[C@H](CO[C@H]1O[C@H](COC(=O)c2ccccc2)[C@H](OCC(=O)O)[C@H](OCC(=O)O)[C@H]1OC(=O)c1ccccc1)NC(=O)CCCCCCCCCCCCCCC [Example 10, (2S,3R,4E)-2-Hexadecanoylamino-3-benzoyloxy-1-[3,4-di-O-carboxy-methyl-2,6-di-O-benzoyl-α-D-galactopyranosyloxy]-4-octadecene]",RPA VP % Inhib. (vascular permeability),[1]; 125I-BSA plasma extravasation into skin,54%
same,"RPA MPO % Inhib. (myeloperoxidase, neutrophil accumulation)",[1]; skin MPO activity,65%
same,IC50,[2],> 100 µM
CC(=O)N[C@H]1C(O)O[C@H](CO)[C@@H](O[C@@H]2O[C@H](CO)[C@H](O)[C@H](O)[C@H]2O)[C@@H]1O[C@@H]1O[C@@H](C)[C@@H](O)[C@@H](O)[C@@H]1O (stereo partly shown) [Le^x],binding to P-selectin (in words),P-selectin [3],shown to bind
dextran sulfate,inhibition of P-selectin mediated adhesion (in words),P-selectin [4],shown to inhibit P-selectin mediated adhesion
fucoidan,inhibition of P-selectin mediated adhesion (in words),P-selectin [4],shown to inhibit P-selectin mediated adhesion
heparin,inhibition of P-selectin mediated adhesion (in words),P-selectin [4],shown to inhibit P-selectin mediated adhesion
